For 3 compounds, Activity results are on record in ChEMBL document CHEMBL5537209, “Teleocidin B-4, a PKC Activator, Upregulates Hypoxia-Inducible Factor 1 (HIF-1) Activity by Promoting the Accumulation of HIF-1α Protein via the PKCα/mTORC Signaling Pathway” (J Nat Prod, 2024).

Common to all, as to assay type: cell-based
In assay [1] the test system is HeLa. Put plainly: Activation of HIF-1 transcriptional activity in human HeLa cells transfected with 5xHRE-Luc/UCHL1 reporter and PKCalpha siRNA at 10 ng/ml incubated for 24 hrs under hypoxia condition by luciferase reporter assay.
The test system of assay [2] is HeLa S3. Put plainly: Activation of HIF-1 in human HeLa S3 cells assessed as increase in HIF-1alpha protein level at 10 ng/ml pretreated with MG132 for 1 hr followed by 12 hrs incubation under normoxic condition by Western blotting analysis. The note with it: filed as activator.
Assay [3] has as its system HeLa. The assay is described as follows: Activation of HIF-1 transcriptional activity in human HeLa cells transfected with 5xHRE-Luc/UCHL1 reporter and PKCdelta siRNA at 10 ng/ml incubated for 24 hrs under hypoxia condition by luciferase reporter assay. Conditions: filed as activator.
The test system of assay [4] is HeLa. Put plainly: Activation of HIF-1 transcriptional activity in human HeLa cells transfected with 5xHRE-Luc/UCHL1 reporter at 10 ng/ml pretreated with Go6976 for 1 hr followed by 24 hrs incubation under hypoxic condition by luciferase reporter assay.
For assay [5], the system named is HeLa S3. The assay is described as follows: Activation of HIF-1 in human HeLa S3 cells assessed as increase in HIF-1alpha protein level at 10 ng/ml preincubated for 1 hr under normoxic condition followed by 12 hrs incubation under hypoxic condition by Western blotting analysis. Conditions: filed as activator, time 13.0 hrs.
Assay [6] concerns HeLa. The assay is described as follows: Activation of HIF-1 transcriptional activity in human HeLa cells transfected with 5xHRE-Luc/UCHL1 reporter at 0.1 to 1000 ng/ml preincubated for 1 hr under normoxic condition followed by 24 hrs incubation under hypoxic condition by luciferase reporter assay. The note with it: filed as activator, dose 0.1-1000 ng/ml, time 25.0 hrs.
In assay [7] the test system is HeLa S3. The assay is described as follows: Activation of HIF-1 in human HeLa S3 cells assessed as increase in VEGF mRNA level at 10 ng/ml preincubated for 1 hr under normoxic condition followed by 6 hrs incubation under hypoxic condition by real-time quantitative PCR analysis. The note with it: filed as activator, time 7.0 hrs.
Assay [8] concerns HeLa S3. The assay is described as follows: Activation of PKCalpha/mTORC pathway in human HeLa S3 cells assessed as accumulation of phosphorylated ribosomal protein S6 at 10 ng/ml incubated for 12 hrs under hypoxia condition by Western blotting analysis. The note with it: filed as activator.
Assay [9] has as its system HeLa S3. The assay is described as follows: Activation of PKCdelta/mTORC pathway in human HeLa S3 cells transfected with PKCdelta siRNA assessed as accumulation of phosphorylated ribosomal protein S6 at 10 ng/ml incubated for 12 hrs under hypoxia condition by Western blotting analysis. Conditions: filed as activator.
Assay [10] deals with HeLa S3. The assay is described as follows: Activation of HIF-1 transcriptional activity in human HeLa S3 cells transfected with 5xHRE-Luc/UCHL1 reporter and PKCalpha siRNA assessed as upregulation of HIF-1alpha protein level at 10 ng/ml incubated for 12 hrs under hypoxia condition by Western blotting assay.
The test system of assay [11] is HeLa S3. Put plainly: Activation of PKCalpha/mTORC pathway in human HeLa S3 cells transfected with PKCalpha siRNA assessed as accumulation of phosphorylated ribosomal protein S6 at 10 ng/ml incubated for 12 hrs under hypoxia condition by Western blotting analysis.
The subject of assay [12] is HeLa. Put plainly: Activation of HIF-1 transcriptional activity in human HeLa cells transfected with 5xHRE-Luc/UCHL1 reporter at 10 ng/ml pretreated with torin1 for 1 hr followed by 24 hrs incubation under hypoxia condition by luciferase reporter assay.
The subject of assay [13] is HeLa S3. The assay is described as follows: Activation of HIF-1 in human HeLa S3 cells assessed as increase in HIF-1alpha protein level at 0.1 to 10 ng/ml preincubated for 1 hr under normoxic condition followed by 12 hrs incubation under hypoxic condition by Western blotting analysis. Conditions: filed as activator, dose 0.1-10 ng/ml, time 13.0 hrs.
In assay [14] the test system is HeLa S3. Put plainly: Activation of HIF-1 in human HeLa S3 cells assessed as increase in VEGF mRNA level at 0.1 to 10 ng/ml preincubated for 1 hr under normoxic condition followed by 6 hrs incubation under hypoxic condition by real-time quantitative PCR analysis. Conditions: filed as activator, dose 0.1-10 ng/ml, time 7.0 hrs.
Assay [15] concerns HeLa S3. The assay is described as follows: Activation of HIF-1 in human HeLa S3 cells assessed as increase in VEGF mRNA level at 10 ng/ml pretreated with Go6983 for 1 hr followed by 6 hrs incubation under hypoxic condition by real-time quantitative PCR analysis.
In assay [16] the test system is HeLa. The assay is described as follows: Activation of HIF-1 transcriptional activity in human HeLa cells transfected with 5xHRE-Luc/UCHL1 reporter at 0.1 to 100 ng/ml pretreated with Go6983 for 1 hr followed by 24 hrs incubation under hypoxic condition by luciferase reporter assay. Conditions: dose 0.1-100 ng/ml.
The test system of assay [17] is HeLa S3. The assay is described as follows: Activation of HIF-1 in human HeLa S3 cells assessed as increase in HIF-1alpha protein level at 10 ng/ml pretreated with Go6983 for 1 hr followed by 12 hrs incubation under hypoxic condition by Western blotting analysis.
In assay [18] the test system is HeLa. The assay is described as follows: Activation of HIF-1 transcriptional activity in human HeLa cells transfected with 5xHRE-Luc/UCHL1 reporter at 0.1 to 10 uM preincubated for 1 hr under normoxic condition followed by 24 hrs incubation under hypoxic condition by luciferase reporter assay. The note with it: filed as activator, dose 0.1-10 µM, time 25.0 hrs.

Active and inactive are the calls of the source. No cut-off for these calls is given here.

Regarding `CCCCCCCCCCCCCC(=O)O[C@@H]1[C@@H](C)[C@@]2(O)[C@@H](C=C(CO)C[C@]3(O)C(=O)C(C)=C[C@@H]23)[C@@H]2C(C)(C)[C@]12OC(C)=O`, the outcome in assay [1], in assay [4], in [10] and in [11] was inactive. Further, the outcome in assay [2], in [3], in assay [5], in [6], in assay [7] and in assay [8] was Active. For the same compound, the result in [9] was Active.
Turning to `C=C[C@@]1(C)CC[C@](C)(C(C)C)c2cc3c4c(c[nH]c4c21)C[C@@H](CO)NC(=O)[C@H](C(C)C)N3C`, the result in [12], in assay [1], in [15], in assay [4], in [16] and in assay [17] was inactive. The outcome in assay [10] and in [11] was inactive. Further, the result in assay [13], in [2], in assay [3], in assay [14], in assay [6] and in assay [8] was Active. For the same compound, the outcome in [9] was Active.
On to `C[C@H]1[C@@H]2C[C@@]3(O[C@H](CCC3(C)C)CC(=O)O[C@@H](CO)CC(=O)O2)O[C@@H]1CCCCc1cccc(O)c1`, for which the result in assay [18] was Active.
